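Following 48 hours of exposure in 96-well plates, responses at five concentrations were used to interpolate endpoints linearly. GI50 = concentration required for 50% inhibition of growth.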 Calls of active or inactive are those of the source. Rule as the data show it: active = GI50 up to about 1.1 µM and inactive = higher.
Legend:
Assay in all cases: NCI anticancer screen, dose series, 48 h
NCI-H460 = system: NCI-H460
NCI-H522 = system: NCI-H522
SNB-19 = system: SNB-19
MDA-MB-231 = system: MDA-MB-231
UACC-62 = system: UACC-62
SN12C = system: SN12C
Hs-578T = system: Hs-578T
OVCAR-5 = system: OVCAR-5
786-0 = system: 786-0
LOX IMVI = system: LOX IMVI
UO-31 = system: UO-31
TK-10 = system: TK-10
DU-145 = system: DU-145
OVCAR-4 = system: OVCAR-4
COLO 205 = system: COLO 205
A549 = system: A549
NCI-H226 = system: NCI-H226
RPMI-8226 = system: RPMI-8226
BT-549 = system: BT-549
KM12 = system: KM12
SK-MEL-2 = system: SK-MEL-2
MOLT-4 = system: MOLT-4
T47D = system: T47D
K562 = system: K562
CAKI-1 = system: CAKI-1
SW-620 = system: SW-620
CCRF-CEM = system: CCRF-CEM
SF-539 = system: SF-539
MDA-MB-435 = system: MDA-MB-435
SK-MEL-28 = system: SK-MEL-28
HL-60 = system: HL-60
SF-268 = system: SF-268
NCI-H23 = system: NCI-H23
SK-MEL-5 = system: SK-MEL-5
SR = system: SR
EKVX = system: EKVX
U-251 = system: U-251
Malme-3M = system: Malme-3M
HOP-62 = system: HOP-62
RXF 393 = system: RXF 393
OVCAR-8 = system: OVCAR-8
HCT-15 = system: HCT-15
HT-29 = system: HT-29
MCF7 = system: MCF7
ACHN = system: ACHN
NCI/ADR-RES = system: NCI/ADR-RES
HOP-92 = system: HOP-92
UACC-257 = system: UACC-257
A498 = system: A498
SK-OV-3 = system: SK-OV-3
SNB-75 = system: SNB-75
SF-295 = system: SF-295
HCT-116 = system: HCT-116
OVCAR-3 = system: OVCAR-3
IGROV-1 = system: IGROV-1
M14 = system: M14
PC-3 = system: PC-3

`CCOn1cc(C[C@@]2(O)C(=O)OC3[C@@H](O)CO[C@@]32O)c2ccccc21` (some centres not stated) was tested, and the GI50 (NCI-H460) was > 100 µM (inactive), the GI50 (NCI-H522) was > 100 µM (inactive) and the GI50 (SNB-19) was > 100 µM (inactive). For the same compound, the GI50 (MDA-MB-231) was > 100 µM (inactive), the GI50 (UACC-62) was 46.7 µM (inactive) and the GI50 (SN12C) was > 100 µM (inactive). The GI50 (Hs-578T) was > 100 µM (inactive), the GI50 (OVCAR-5) was > 100 µM (inactive) and the GI50 (786-0) was 94.4 µM (inactive). The GI50 (LOX IMVI) was > 100 µM (inactive), the GI50 (UO-31) was > 100 µM (inactive) and the GI50 (TK-10) was > 100 µM (inactive). The GI50 (DU-145) was > 100 µM (inactive), the GI50 (OVCAR-4) was > 100 µM (inactive) and the GI50 (COLO 205) was > 100 µM (inactive). For the same compound, the GI50 (A549) was > 100 µM (inactive), the GI50 (NCI-H226) was > 100 µM (inactive) and the GI50 (RPMI-8226) was > 100 µM (inactive). The GI50 (BT-549) was > 100 µM (inactive), the GI50 (KM12) was > 100 µM (inactive) and the GI50 (SK-MEL-2) was > 100 µM (inactive). The GI50 (MOLT-4) was > 100 µM (inactive), the GI50 (T47D) was > 100 µM (inactive) and the GI50 (K562) was > 100 µM (inactive). The GI50 (CAKI-1) was > 100 µM (inactive), the GI50 (SW-620) was > 100 µM (inactive) and the GI50 (CCRF-CEM) was 36.5 µM (inactive). The GI50 (SF-539) was > 100 µM (inactive), the GI50 (MDA-MB-435) was > 100 µM (inactive) and the GI50 (SK-MEL-28) was > 100 µM (inactive). For the same compound, the GI50 (HL-60) was > 100 µM (inactive), the GI50 (SF-268) was > 100 µM (inactive) and the GI50 (NCI-H23) was > 100 µM (inactive). For the same compound, the GI50 (SK-MEL-5) was > 100 µM (inactive), the GI50 (SR) was > 100 µM (inactive) and the GI50 (EKVX) was > 100 µM (inactive). The GI50 (U-251) was > 100 µM (inactive), the GI50 (Malme-3M) was > 100 µM (inactive) and the GI50 (HOP-62) was > 100 µM (inactive). The GI50 (RXF 393) was > 100 µM (inactive), the GI50 (OVCAR-8) was > 100 µM (inactive) and the GI50 (HCT-15) was > 100 µM. The GI50 (HT-29) was > 100 µM (inactive), the GI50 (MCF7) was > 100 µM (inactive) and the GI50 (ACHN) was > 100 µM (inactive). The GI50 (NCI/ADR-RES) was > 100 µM (inactive), the GI50 (HOP-92) was > 100 µM (inactive) and the GI50 (UACC-257) was > 100 µM (inactive). For the same compound, the GI50 (A498) was 1.94 µM (inactive), the GI50 (SK-OV-3) was > 100 µM (inactive) and the GI50 (SNB-75) was > 100 µM (inactive). The GI50 (SF-295) was > 100 µM (inactive), the GI50 (HCT-116) was > 100 µM (inactive) and the GI50 (OVCAR-3) was > 100 µM (inactive). For the same compound, the GI50 (IGROV-1) was > 100 µM (inactive), the GI50 (M14) was > 100 µM (inactive) and the GI50 (PC-3) was > 100 µM (inactive).
